Results on five compounds are retold here after patent US20230118497A1, “PYRAZOLE-CONTAINING POLYCYCLIC DERIVATIVE INHIBITOR, PREPARATION METHOD THEREFOR AND APPLICATION THEREOF” (Shanghai Hansoh Biomedical Co., Ltd., priority 2019, published 2023).

For data set [1], the target named is T1, CYP450 enzyme isoform 3A4 (Homo sapiens, UniProt P08684).
T1 construct: single-point method using human liver microsome incubation system; from tissue; host or cells: human liver microsomes
Kind of data set: CYP enzyme single-point inhibition assay, 3A4. It is filed as in vitro ADME. Particulars: human liver microsome, single-point method. Here is the method: Test Example 7. CYP Enzyme Single-Point Inhibition Assay
The inhibition of the compounds on CYP450 enzyme isoformwas rapidly predicted by single-point method using human liver microsome incubation system.
2.5 mM NADPH: 4.165 mg of NADPH (reduced nicotinamide adenine dinucleotide phosphate) was weighed, followed by addition of 100 mM phosphate buffer to 2 mL. 0.25 mg/mL microsome solution: 4 mL of 100 mM phosphate buffer was added to 50 μL of 20 mg/mL microsome solution and mixed well.
The test compound of the Example was weighed, diluted to 10 mM with DMSO and then to 100 μM with 100 mM phosphate buffer.
1. 40 μL of liver microsome, 10 μL of substrate and 10 μL of the test compound were added to a 96-well plate and pre-incubated for 3 min.
2. 40 μL of NADPH was added.
3. 300 μL of acetonitrile stop solution containing internal standard was added at 20 min.
4. The sample was centrifuged and injected.
Background: Liver microsomes are vesicles of endoplasmic reticulum, rich in cytochrome P450 enzymes.

The target in the next data set is T2, 1321N1-hP2X3 receptor (Homo sapiens, UniProt P56373).
T2 construct: host or cells: 1321N1
T2 sequence (P56373 1-397): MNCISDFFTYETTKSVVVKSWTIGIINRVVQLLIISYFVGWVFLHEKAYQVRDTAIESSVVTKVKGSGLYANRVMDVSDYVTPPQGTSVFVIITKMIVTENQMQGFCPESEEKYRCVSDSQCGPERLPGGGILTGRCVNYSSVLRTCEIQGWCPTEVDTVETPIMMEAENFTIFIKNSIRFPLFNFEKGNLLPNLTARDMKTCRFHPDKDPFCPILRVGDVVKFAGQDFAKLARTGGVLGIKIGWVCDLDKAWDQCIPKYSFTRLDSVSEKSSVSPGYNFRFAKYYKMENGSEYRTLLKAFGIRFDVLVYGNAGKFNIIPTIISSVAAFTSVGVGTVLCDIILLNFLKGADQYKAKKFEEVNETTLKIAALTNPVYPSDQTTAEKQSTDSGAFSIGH
Nature of the data set: Calcium ion mobility (FLIPR) in cells stably expressing 1321N1-hP2X3 receptors. Particulars: calcium signal, agonist at EC80. It is filed as cell-based. Here is the method: Test Example 1. Determination of the Effect of the Compounds of the Present Invention on Calcium Ion Mobility in Cells Stably Expressing 1321N1-hP2X3 Receptors
To determine the inhibitory activity of the compounds on 1321N1-hP2X3 receptor.
Stably transfected cell line: 1321N1-hP2X3 (supplied by Shanghai ChemPartner Chemical Research Co., Ltd.).
Assay buffer: 1*HBSS+20 mM HEPES;
Cell culture medium: DMEM+10% FBS+75 µg/mL Hygromycin B+300 µg/mL G418;
Plating medium: DMEM+10% DPBS;
0.5*Dye: 10*Dye stock+1.25 Probenecid+1*assay buffer+0.5 U/mL ATP hydrolytic enzyme;
2. The cells were cultured to 70%-90% confluency in the cell culture medium at 37° C., 5% CO2. The medium was discarded, and the cells were added with 2 mL of Versene, and the cells were placed in an incubator at 37° C. for 2 to 5 min. The cells were collected by addition of 10 mL of plating medium and counted. The cells were seeded to the 384-well assay plate by addition of 50 μL solution (a density of 1×10^4 cells/well) to each well, and incubated for 16 to 24 hours (at least overnight).
3. The medium was discarded, and 30 μL of 1× dye was added. The cells were incubated at 37° C. in the dark for 60 min.
4. The compound powder was dissolved in DMSO to obtain a 20 mM stock solution. 180× compound with required concentration was formulated, and diluted in gradient for concentration points.
5. Preparation of compound plate: 500 nL of 180× compound was transferred to the compound plate (source plate for FLIPR) using ECHO. 30 μL of assay buffer was added to each well, and the plate was shaken gently for 20 to 40 minutes.
6. Determination: 15 μL of 3× compound was taken from each well and added to the cell plate. The samples were added by FLIPR instrument, and the calcium signals were detected. After 15 minutes, 22.5 μL of 3× agonist (EC80 concentration) was added to each well and the calcium signals were detected.
The calcium signal values were determined by FLIPR. The ratio of the 340/510 nm wavelength signals to 380/510 nm wavelength signals was used as the calculated results for each sampling time point in the experiment. The calculation of maximum minus minimum was derived from the ratio signal curve.
The percent inhibition rate and ten-point concentration data were fitted to the parametric nonlinear logistic equation by using GraphPad prism to calculate the IC50 values of the compounds.

Data set [2] in a line: Plasma protein binding rate (dog). The conditions noted are these: 37° C. 6 h. The data set is classed as in vitro ADME. Here is the method: (§1) Test Example 6. Assay of Plasma Protein Binding Rate
(§2) The objective of the experiment is to determine the plasma protein binding of the compounds of the Examples in plasma.
(§3) The compound of the Example was formulated into 1 mM solution A with DMSO;
(§4) The solution A was added to the plasma solution to obtain 5 μM solution B;
(§5) 1) 200 μL of solution B was added to the inside of the membrane;
(§6) 2) […] of PBS was added to the outside of the membrane;
(§7) 3) Incubation in a water bath at 37° C. for 6 h;
(§8) 4) The sample was diluted and analyzed by mass spectrometry.

Data set [3] in a line: Plasma protein binding rate (rat). The data set is classed as in vitro ADME. The conditions noted are these: 37° C. 6 h. Here is the method:
as §1, §2, §3, §4, §5, §6, §7, §8

Data set [4] is described as follows: Metabolic stability in liver microsome (rat). The data set is classed as in vitro ADME. The conditions noted are these: rat liver microsome 0.5 mg/mL, compound 1 μM; for half-life at 1 μM: liver microsomes. Here is the method: Test Example 5. Assay of Metabolic Stability in Liver Microsome
The objective of the experiment is to determine the stability of the compounds of the Examples in liver microsome of mouse, rat, dog and human.
Formulation of the working solution of the compound: The stock solution of the compound was added to phosphate buffer, and the final concentration was 20 μM.
Liver microsome was diluted with 100 mM phosphate buffer to obtain a final concentration of 0.625 mg/mL.
NADPH (reduced nicotinamide adenine dinucleotide phosphate) and UDPGA (uridine diphosphate glucuronic acid) were weighed respectively, followed by addition of 100 mM phosphate buffer. The final concentrations were 20 mM.
1 mg of Alamethicin was weighed, to which 200 μL of DMSO was added to obtain a 5 mg/mL solution. The solution was diluted with phosphate buffer to obtain a final concentration of 50 μg/mL.
2.5 Formulation of the reaction stop solution Stop solution: Cold acetonitrile containing 100 ng/mL labetalol hydrochloride and 400 ng/mL tolbutamide as internal standards.
400 μL of the prepared liver microsome, 25 μL of the working solution of the compound and 25 μL of Alamethicin were added to a 96-well plate successively, which was then pre-incubated at 37° C. for 10 min. 50 μL of the prepared NADPH/UDPGA was added to initiate the reaction, and the plate was incubated at 37° C. The total volume of the reaction system was 500 μL. The final contents of the components were as follows: […]

pIC50: −log10 of the molar value. Where two headings read alike, the source gives them in different places.

T1 sequence (P08684 whole entry, canonical isoform): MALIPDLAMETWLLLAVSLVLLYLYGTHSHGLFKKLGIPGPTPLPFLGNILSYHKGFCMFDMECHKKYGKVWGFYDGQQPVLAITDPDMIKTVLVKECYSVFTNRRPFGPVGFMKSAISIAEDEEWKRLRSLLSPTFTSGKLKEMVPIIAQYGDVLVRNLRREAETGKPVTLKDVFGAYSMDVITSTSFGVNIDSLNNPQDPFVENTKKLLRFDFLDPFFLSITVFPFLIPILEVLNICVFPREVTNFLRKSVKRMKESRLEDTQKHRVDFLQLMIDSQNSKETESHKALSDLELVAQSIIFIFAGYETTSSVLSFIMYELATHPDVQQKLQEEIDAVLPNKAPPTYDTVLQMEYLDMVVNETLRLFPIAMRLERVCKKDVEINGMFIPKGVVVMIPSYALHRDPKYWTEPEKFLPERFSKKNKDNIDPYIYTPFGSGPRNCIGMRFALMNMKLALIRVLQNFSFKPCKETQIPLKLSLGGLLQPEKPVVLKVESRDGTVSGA

The term pIC50 denotes −log10 of the IC50, conventionally taken in molar units. What is called fraction unbound is the share of the substance not bound to proteins or other matrix. Read a high fraction unbound as weak binding. Usually half-life stands for how long it takes for the measured level to halve. A high value points to slow decline. As for `CCc1cc2n(CC(=O)Nc3ccc(F)cn3)c(=O)c3ccc(C(F)(F)F)nc3n2n1` [Example 34, 2-(2-Ethyl-5-oxo-8-(trifluoromethyl)pyrazolo[1,5-a]pyrido[3,2-e]pyrimidin-4(5H)-yl)-N-(5-fluoropyridin-2-yl)acetamide], the pIC50 in data set [1] (3A4-M, read-out: 3A4-M IC50) is under 4.00; in data set [1] (3A4-T, read-out: 3A4-T IC50) it was under 4.00; at 1321N1-hP2X3 receptor, 7.20. The fraction unbound at 6 h, 5 μM is 0.032 in data set [2] and 0.044 in data set [3]. Moreover, in data set [4] (NADPH/UDPGA), the half-life at 1 μM is 28.9 h. Moreover, the “Remaining (%, 60 min)” value in data set [4] is 104.4%.

Take `O=C(Cn1c(=O)c2ccc(C(F)(F)F)nc2n2nc(Br)cc12)Nc1ccc(F)cn1` [Example 61-A, 2-(2-bromo-5-oxo-8-(trifluoromethyl)pyrazolo[1,5-a]pyrido[3,2-e]pyrimidin-4(5H)-yl)-N-(5-fluoropyridin-2-yl)acetamide]: the pIC50 in data set [1] (3A4-M, read-out: 3A4-M IC50) is under 4.00; in data set [1] (3A4-T, read-out: 3A4-T IC50), under 4.00; at 1321N1-hP2X3 receptor, 7.12. The fraction unbound at 6 h, 5 μM in data set [2] amounted to 0.037; in data set [3], 0.027. The half-life at 1 μM in data set [4] (NADPH/UDPGA) was 15.7 h. Moreover, the “Remaining (%, 60 min)” value in data set [4] is 102.3%.

With `N#Cc1cc2n(CC(=O)Nc3ccc(F)cn3)c(=O)c3ccc(C(F)(F)F)nc3n2n1` [Example 68, 2-(2-Cyano-5-oxo-8-(trifluoromethyl)pyrazolo[1,5-a]pyrido[3,2-e]pyrimidin-4(5H)-yl)-N-(5-fluoropyridin-2-yl)acetamide], the pIC50 in data set [1] (3A4-M, read-out: 3A4-M IC50) was under 4.00; in data set [1] (3A4-T, read-out: 3A4-T IC50) it was under 4.00; at 1321N1-hP2X3 receptor, 7.49. The fraction unbound at 6 h, 5 μM in data set [2] was 0.084; in data set [3] it was 0.11. The “Remaining (%, 60 min)” value in data set [4] is 106.4%. In addition, the t1/2 result in data set [4] (NADPH/UDPGA) is listed as “∞”.

Take `O=C(Cn1c(=O)c2ccc(C(F)(F)F)nc2n2nccc12)Nc1ccc(F)cn1` [Example 78, N-(5-Fluoropyridin-2-yl)-2-(5-oxo-8-(trifluoromethyl)pyrazolo[1,5-a]pyrido[3,2-e]pyrimidin-4(5H)-yl)acetamide]: the pIC50 was under 4.00 in data set [1] (3A4-M, read-out: 3A4-M IC50); under 4.00 in data set [1] (3A4-T, read-out: 3A4-T IC50); 7.31 on 1321N1-hP2X3 receptor. Besides, the fraction unbound at 6 h, 5 μM in data set [2] came out at 0.147; in data set [3], 0.061. For the same compound, in data set [4] (NADPH/UDPGA), the half-life at 1 μM is 32.7 h. The “Remaining (%, 60 min)” value in data set [4] is 98.9%.

For `N#Cc1cnn2c3nc(C(F)(F)F)ccc3c(=O)n(CC(=O)Nc3ccc(F)cn3)c12` [Example 80, 2-(3-Cyano-5-oxo-8-(trifluoromethyl)pyrazolo[1,5-a]pyrido[3,2-e]pyrimidin-4(5H)-yl)-N-(5-fluoropyridin-2-yl)acetamide], the pIC50 on 1321N1-hP2X3 receptor was 7.19. Also, the unbound share (fraction unbound) at 6 h, 5 μM in data set [2] was 0.135; in data set [3] it was 0.234.
